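A five-concentration, 48-hour dose response in 96-well plates underlies each endpoint, interpolated linearly between surrounding concentrations. Here, GI50 denotes the concentration required for 50% inhibition of growth. TGI denotes the concentration required for complete inhibition of growth.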
Experiments:
Experiment in all cases: NCI tumour cell line growth inhibition, 48 h
[1] = tested on: EKVX NSCLC
[2] = tested on: OVCAR-8 ovarian
[3] = tested on: NCI-H226 lung
[4] = tested on: MOLT-4 leukemia
[5] = tested on: SF-539 CNS
[6] = tested on: SF-268 CNS
[7] = tested on: BT-549 breast
[8] = tested on: TK-10 renal
[9] = tested on: SN12C renal
[10] = tested on: SF-295 CNS
[11] = tested on: LOX IMVI melanoma
[12] = tested on: KM12 colon
[13] = tested on: MDA-MB-231 breast
[14] = tested on: HCT-116 colon
[15] = tested on: 786-0 renal
[16] = tested on: HS 578T breast
[17] = tested on: SK-MEL-28 melanoma
[18] = tested on: CAKI-1 renal
[19] = tested on: M14 melanoma
[20] = tested on: MALME-3M melanoma
[21] = tested on: NCI/ADR-RES ovarian
[22] = tested on: U251 CNS
[23] = tested on: DU-145 prostate
[24] = tested on: HCC-2998 colon
[25] = tested on: RPMI-8226 leukemia
[26] = tested on: OVCAR-3 ovarian
[27] = tested on: A498 renal
[28] = tested on: HL-60(TB) leukemia
[29] = tested on: SNB-19 CNS
[30] = tested on: A549 NSCLC
[31] = tested on: NCI-H460 lung
[32] = tested on: HOP-92 NSCLC
[33] = tested on: HT29 colon
[34] = tested on: SNB-75 CNS
[35] = tested on: CCRF-CEM leukemia
[36] = tested on: T-47D breast
[37] = tested on: IGROV1 ovarian
[38] = tested on: MDA-MB-435
[39] = tested on: SK-OV-3 ovarian
[40] = tested on: K-562 leukemia
[41] = tested on: UO-31 renal
[42] = tested on: NCI-H23 lung
[43] = tested on: HCT-15 colon
[44] = tested on: OVCAR-5 ovarian
[45] = tested on: NCI-H522 lung
[46] = tested on: HOP-62 NSCLC
[47] = tested on: PC-3 prostate
[48] = tested on: ACHN renal
[49] = tested on: SK-MEL-2 melanoma
[50] = tested on: UACC-62 melanoma
[51] = tested on: UACC-257 melanoma
[52] = tested on: SK-MEL-5 melanoma
[53] = tested on: OVCAR-4 ovarian
[54] = tested on: COLO 205 colon
[55] = tested on: RXF 393 renal
[56] = tested on: MCF7 breast
[57] = tested on: SW-620 colon

In the case of `N#Cc1cc(-c2nc3cc(F)ccc3s2)ccc1N`, the TGI [1] is reported as 98.8 µM, the TGI [2] is reported as over 100 µM and the TGI [3] is reported as 79.3 µM. It also gave a TGI [4] of over 100 µM, a TGI [5] of 56.7 µM and a TGI [6] of over 78.3 µM. The TGI [7] was 29.1 µM, the TGI [8] was 1.69 µM and the TGI [9] was over 100 µM. For the same compound, the TGI [10] was over 100 µM, the TGI [11] was over 100 µM and the TGI [12] was over 32.8 µM. It also gave a TGI [13] of over 85.1 µM, a TGI [14] of over 100 µM and a TGI [15] of over 100 µM. For the same compound, the TGI [16] was over 100 µM, the TGI [17] was over 100 µM and the TGI [18] was over 100 µM. It also gave a TGI [19] of 99.7 µM, a TGI [20] of over 100 µM and a TGI [21] of over 100 µM. The TGI [22] was over 82.1 µM, the TGI [23] was over 100 µM and the TGI [24] was 0.0604 µM. It also gave a TGI [25] of over 100 µM, a TGI [26] of over 100 µM and a TGI [27] of over 56.4 µM. The TGI [28] was over 100 µM, the TGI [29] was over 66.6 µM and the TGI [30] was over 68.4 µM. It also gave a TGI [31] of 17.8 µM, a TGI [32] of 29.6 µM and a TGI [33] of over 100 µM. The TGI [34] was 6.68 µM, the TGI [35] was over 100 µM and the TGI [36] was 0.22 µM. It also gave a TGI [37] of 13.9 µM, a TGI [38] of over 100 µM and a TGI [39] of over 92.3 µM. The TGI [40] was over 100 µM, the TGI [41] was over 100 µM and the TGI [42] was 0.848 µM. It also gave a TGI [43] of over 100 µM, a TGI [44] of 2.9 µM and a TGI [45] of over 100 µM. For the same compound, the TGI [46] was over 100 µM, the TGI [47] was over 100 µM and the TGI [48] was 62.5 µM. The TGI [49] was over 66.8 µM, the TGI [50] was over 87.7 µM and the TGI [51] was over 100 µM. It also gave a TGI [52] of over 100 µM, a TGI [53] of over 93.5 µM and a TGI [54] of over 100 µM. For the same compound, the TGI [55] was 14.1 µM, the TGI [56] was 0.583 µM and the TGI [57] was over 100 µM.
`NC(=O)[C@@H](CCC(F)(F)F)N(Cc1ccc(-c2ncon2)cc1F)S(=O)(=O)c1ccc(Cl)cc1` was tested, and the GI50 [1] was over 90.3 µM, the TGI [1] was over 100 µM and the GI50 [2] was 46.8 µM. The TGI [2] was over 100 µM, the GI50 [3] was over 54.1 µM and the TGI [3] was over 100 µM. For the same compound, the GI50 [4] was 16.3 µM, the TGI [4] was 54.7 µM and the GI50 [5] was 31 µM. The TGI [5] was over 62.6 µM, the GI50 [6] was 39.6 µM and the TGI [6] was over 100 µM. The GI50 [7] was 32.6 µM, the TGI [7] was over 59 µM and the GI50 [8] was 21 µM. The TGI [8] was over 63.5 µM, the GI50 [9] was 25.8 µM and the TGI [9] was over 57.8 µM. For the same compound, the GI50 [10] was 35.3 µM, the TGI [10] was over 100 µM and the GI50 [11] was 29.9 µM. For the same compound, the TGI [11] was over 100 µM, the GI50 [12] was 23.1 µM and the TGI [12] was over 56.3 µM. For the same compound, the GI50 [13] was 36.3 µM, the TGI [13] was over 100 µM and the GI50 [14] was 35.3 µM. For the same compound, the TGI [14] was over 61.7 µM, the GI50 [15] was over 40.5 µM and the TGI [15] was over 59 µM. The GI50 [16] was 28.8 µM, the TGI [16] was over 100 µM and the GI50 [17] was 45.5 µM. For the same compound, the TGI [17] was over 100 µM, the GI50 [18] was 13.7 µM and the TGI [18] was over 62.8 µM. For the same compound, the GI50 [19] was 22.2 µM, the TGI [19] was over 52.6 µM and the GI50 [20] was 32 µM. For the same compound, the TGI [20] was over 73.7 µM, the GI50 [21] was 47.5 µM and the TGI [21] was over 100 µM. It also gave a GI50 [22] of over 49 µM, a TGI [22] of over 100 µM and a GI50 [23] of over 67.1 µM. It also gave a TGI [23] of over 100 µM, a GI50 [24] of over 68.9 µM and a TGI [24] of over 100 µM. The GI50 [25] was 14.5 µM, the TGI [25] was 64.4 µM and the GI50 [26] was 23.6 µM. It also gave a TGI [26] of over 60.5 µM, a GI50 [27] of 8.86 µM and a TGI [27] of over 62.7 µM. The GI50 [28] was 23.7 µM, the TGI [28] was 65.6 µM and the GI50 [29] was over 50.6 µM. The TGI [29] was over 100 µM, the GI50 [30] was 36.7 µM and the TGI [30] was over 100 µM. It also gave a GI50 [31] of 30.6 µM, a TGI [31] of over 100 µM and a GI50 [32] of 8.88 µM. The TGI [32] was 43.3 µM, the GI50 [33] was 21.3 µM and the TGI [33] was over 58.7 µM. For the same compound, the GI50 [34] was 53.3 µM, the TGI [34] was over 100 µM and the GI50 [35] was 20.8 µM. The TGI [35] was over 100 µM, the GI50 [36] was 21.3 µM and the TGI [36] was over 78.7 µM. For the same compound, the GI50 [37] was 51.7 µM, the TGI [37] was over 100 µM and the GI50 [38] was 21.3 µM. It also gave a TGI [38] of over 59.1 µM, a GI50 [39] of over 50.7 µM and a TGI [39] of over 89.9 µM. The GI50 [40] was 34.9 µM, the TGI [40] was over 100 µM and the GI50 [41] was 13.1 µM. It also gave a TGI [41] of over 100 µM, a GI50 [42] of 36.1 µM and a TGI [42] of over 100 µM. The GI50 [43] was 69.6 µM, the TGI [43] was over 100 µM and the GI50 [44] was over 49.5 µM. It also gave a TGI [44] of over 100 µM, a GI50 [45] of 48.8 µM and a TGI [45] of over 100 µM. For the same compound, the GI50 [46] was over 43.2 µM, the TGI [46] was over 64.5 µM and the GI50 [47] was 12.6 µM. The TGI [47] was over 100 µM, the GI50 [48] was 26.7 µM and the TGI [48] was over 73.2 µM. The GI50 [49] was 29.7 µM, the TGI [49] was over 63.9 µM and the GI50 [50] was 18.2 µM. The TGI [50] was over 50.7 µM, the GI50 [51] was 27.3 µM and the TGI [51] was over 85.6 µM. For the same compound, the GI50 [52] was 15.8 µM, the TGI [52] was 33.2 µM and the GI50 [53] was 44.5 µM. The TGI [53] was over 100 µM, the GI50 [54] was 27.4 µM and the TGI [54] was over 57.2 µM. For the same compound, the GI50 [55] was 20.8 µM, the TGI [55] was over 100 µM and the GI50 [56] was 28.4 µM. The TGI [56] was over 100 µM, the GI50 [57] was over 59.9 µM and the TGI [57] was over 100 µM.

— PubChem BioAssay (NCI)
